# “Also recorded” adds a separate entry of the source.
# Assays:
# [1] = tested on: histone H3 acetylation by PCAF; test: PCAF histone acetylase (HAT) assay, core histones from HeLa cells as template, immunoblot; type: biochemical
# Method: Acid extracted protein from untreated (untrt) HeLa cells was used as template in histone acetylase reactions using HAT enzyme, PCAF, in the presence or absence of 10 uM lunasin. Reaction products were immunoblotted and stained with antibodies against diacetylated histone H3. Untrt (−) is the histone template control, NaB (+) correspond to acid extracted histones from NaButyrate treated HeLa cells (positive control). […] Numbers in parenthesis indicate densitometer readings relative to the untreated control (set as 1) in PCAF HAT reaction products.
# Acid extracted histones isolated from untreated (untrt) HeLa cells were used in PCAF HAT reactions, immunoblotted and stained with antibodies to H3 Ac-Lys9 and H3 Ac-Lys14. Untrt (−) is the histone template control, NaB (+) correspond to acid extracted histones from NaButyrate treated HeLa cells (posititve control), +Lun correspond to 10 uM lunasin treated histone template and −Lun correspond to non-lunasin treated. […] Numbers in parenthesis indicate densitometer readings relative to the signal level of lunasin/lunasin treatment (set as 1) in immunoblots stained with Ac-Lys14 H3.
# […] H3 histone acetylation by PCAF histone acetylase enzyme is required for the SREBP activation of genes involved in cholesterol biosynthesis including HMG-CoA reductase (9). Previous study has shown that lunasin is a potent inhibitor of histone H3 acetylation in mammalian cells exposed to the histone deacetylase inhibitor, sodium butyrate (NaB) (4). To determine the effect of lunasin on histone H3 acetylation by PCAF, HAT assay reaction using acid-extracted histones from untreated HeLa cells as template was conducted. […]
# The HAT bioactivity assay was conducted using acid extracted core histones from HeLa cells (Upstate/Millipore) as a template (temp (−) control) for the PCAF catalyzed HAT reaction. […] The numbers below the legend indicate relative densitometer readings normalized using immunosignal from the template (temp). […]
# [2] = tested on: HMG-CoA reductase expression in HepG2 cells; test: Western blot of HMG-CoA reductase expression in HepG2 cells in cholesterol-free media; type: cell-based; conditions: 10 uM synthetic lunasin, 24 hours, cholesterol-free media 24 hours
# Method: (§1) FIG. 2 is a photograph of a Western blot analysis (top) and a table (below) showing densitometer values indicating the relative levels of expression of HMG-CoA reductase in HepG2 cells that were (CFM+LS (24)) or were not (CFM) treated with lunasin for 24 hours prior to incubation in cholesterol free media (CFM) for 24 hours to activate sterol regulatory element binding proteins (SREBP.) After incubations, total protein was extracted and 10 ug protein was loaded onto 10% Tris-glycine gels, electroblotted onto nitrocellulose membrane, and immunostained with primary antibodies raised against HMG-CoA reductase and actin (to show equal loading of proteins.) Spot densitometer values represent mean and standard deviation of data from three separate experiments.
# In the first experiment, HepG2 cells (1×10^6) were treated with or without 10 uM synthetic lunasin in DMEM with 10% FBS for 24 hours before growth media was replaced with cholesterol-free media to activate SREBP. After 24 hours, total protein was extracted and 10 ug protein was loaded onto 10% Tris-glycine gels, electroblotted onto nitrocellulose membrane, and immunostained with primary antibodies raised against HMG-CoA reductase and actin (to show equal loading of proteins). […]
# [3] = tested on: LDL-receptor expression in HepG2 cells; test: Western blot of LDL receptor expression in HepG2 cells in cholesterol-free media; type: cell-based; conditions: 10 uM synthetic lunasin, 24 hours, cholesterol-free media 24 hours
# Method: as §1, with “FIG. 3” for “FIG. 2”, “of LDL receptor” for “of HMG-CoA reductase”, “were (CFM +LS(24))” for “were (CFM+LS (24))”, “activate SREBP.” for “activate sterol regulatory element binding proteins (SREBP.)”, “against LDL-receptor” for “against HMG-CoA reductase”
# In the second experiment, HepG2 cells (1×10^6) were treated with or without 10 uM synthetic lunasin in DMEM with 10% FBS for 24 hours before growth media is replaced with cholesterol-free media to activate SREBP. After 24 hours, total protein was extracted and 10 ug proteins loaded onto 10% Tris-glycine gels, electroblotted onto nitrocellulose membrane, and immunostained with primary antibodies raised against LDL-receptor and actin (to show equal loading of proteins). Spot densitometer values were obtained by digital scanning and Un-Scan It software, and represent mean and standard deviation of data from three separate experiments.
# [4] = tested on: Sp1 expression in HepG2 cells; test: Western blot of Sp1 levels in HepG2 cells; type: cell-based; conditions: 10 uM synthetic lunasin, one experiment
# Method: FIG. 4 is a photograph of a Western blot analysis (top) and a table (below) showing densitometer values indicating the relative levels of expression of Sp1 in HepG2 cells that were grown from confluence in growth media for 24 hours before growth media was replaced with fresh growth media (Media), media with lunasin (Media+LS) or cholesterol free media with lunasin (CFM+LS) or without lunasin (CFM). Samples were then incubated for 24 or 48 hours as indicated. […]
# Unlike HMG-CoA reductase, SREBP activation of LDL-receptor by sterol depletion requires increased recruitment of Sp1 co-activator to a site adjacent to SREBP in the promoter/regulatory sequence of LDL-receptor gene (25). […] To test this hypothesis, the level of Sp1 was determined in lunasin-treated growth media and cholesterol-free media by Western analysis using Sp1 antibody, as follows: HepG2 cells (1×10^6) were grown from confluence in DMEM with 10% FBS for 24 hours before growth media was replaced with fresh growth media or cholesterol-free media (to activate SREBP) and treated with, or without 10 uM synthetic lunasin. […]
# [5] = tested on: histone H3 acetylation by PCAF; test: PCAF HAT bioactivity assay, core histones from chicken erythrocyte as template; type: biochemical; conditions: around 10 ug sample protein with 1 ug core histones; versus untreated control
# Method: Lunasin-enriched soy concentrate with soy flour (LeSC+SF) retains bioactivity even when digested with digestive enzymes. Biological activity of LeSC (A), LeSC+SF (B), digested LeSC+SF (C), digested LeSC (D), digested soy protein isolate (E) and digested soy concentrate (F) was measured using the H3 histone acetyltransferase (HAT) assay (see Example 8.) Around 100 mg total protein of LeSC, LeSC+SF, soy protein isolate and soy concentrate were digested by mixing pancreatin (Sigma Life Sciences, Saint Louis, Mo.) at 1:1 (w/w) and incubating for 30 min. at 40° C. To confirm that the HAT assay is working, treatment with synthetic lunasin (+synL) was included. Synthetic lunasin reduced acetylation of histone H3 by the histone acetylase enzyme, PCAF, using core histones isolated from chicken erythrocyte (Upstate/Millipore, Billerica, Mass.) as template for the HAT assay. […]
# Core histones purified from chicken erythrocyte cells were used as templates in histone acetylase (HAT) reactions using PCAF histone acetylase enzyme, in the presence or absence of around 2-10 uM lunasin. […] Chemiluminescent signals from antibody complexes were visualized using standard chemiluminescent reagents and exposed to Kodak BioMAX film, developed and spot densitometer measured by using digital scanner and UN-SCAN-IT software program from Silk Scientific (Orem, Utah).
# [6] = tested on: tumor formation in mammalian cells; conditions: 1,000 nM (5 μg/ml) to 10,000 nM (50 μg/ml) lunasin; cited from earlier work
# [7] = cited from earlier work
# [8] = 10 uM lunasin, acid-extracted histones from untreated HeLa cells
substance,measurement,setting,value
"lunasin: natural, synthetically or recombinantly obtained soybean lunasin polypeptide (SEQ. ID. 2), small subunit of a cotyledon-specific 2S albumin",H3 Lys 14 acetylation by PCAF (antibodies to H3 Ac-Lys9 and H3 Ac-Lys14),[1]; [8],"decreased H3 Lys 14 acetylation; also recorded: specifically binds to Lys 14, preventing it from being acetylated by PCAF"
same,"histone H3 acetylation (diacetylated H3, Ac-Lys9+Ac-Lys14) by PCAF",[1]; [8],significant decrease in H3 acetylation; also recorded: dramatic reduction of histone H3 acetylation
same,"H3 acetylation by PCAF, undigested samples (Example 6)",[1]; core histones from HeLa cells as template,significant reduction in H3 acetylation
same,reduction of HMG-CoA reductase expression,[2],more than 50%
same,increase of LDL-receptor expression,[3],more than 60%
same,increase of Sp1 levels in cholesterol-free media,[4]; cholesterol-free media,~60%
same,"Sp1 levels, lunasin-treated versus control growth media",[4]; growth media,not significantly different
same,"H3 acetylation by PCAF, undigested samples (Example 5)",[5],significant reduction in H3 acetylation
same,tumor reduction activity compared to the control group,[6],statistically significant tumor reduction activity
same,water solubility,[7],water soluble

# From patent publication US20150306011A1, “METHODS FOR USING SOY PEPTIDES TO INHIBIT H3 ACETYLATION, REDUCE EXPRESSION OF HMG-COA REDUCTASE AND INCREASE LDL RECEPTOR AND SP1 EXPRESSION IN A MAMMAL” (priority 2014, published 2015)
